Test results taken from patent US20060258729A1, “Antibacterial pyrazole carboxylic acid hydrazides” (priority 2002, published 2006).
In brackets after ≈: the same amount, converted by molar mass.

Legend:
[1] = test system: vancomycin-resistant Enterococcus strain B42762; test: Inhibition of bacterial growth (MIC), VRE; type: cell-based; conditions: VRE, 16 to 18 hours, 37° C., read-out: Minimum Inhibitory Concentration for Bacterial Growth, VRE
How it was run: (§1)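 Two-fold DMSO dilutions, usually 80-0.078 μg/mL, 1% DMSO final. Inoculum of 1×10^5 CFU/mL log-phase cells in LB or BHI, shaken 16 to 18 hours at 37° C. Growth read as OD 570 nm; MIC is the lowest concentration without growth.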

[2] = test system: E. faecium clinical isolate; test: Inhibition of bacterial growth (MIC), Efcm; type: cell-based; conditions: Enterococcus faecium, 16 to 18 hours, 37° C., read-out: Minimum Inhibitory Concentration for Bacterial Growth, Efcm
How it was run: as §1

test strains of bacteria = test: Inhibition of bacterial growth, whole panel of test strains; type: cell-based
Protocol: Each compound was assayed against a panel of a strain of Bacillus subtilis, of strains of antibiotic-resistant and sensitive Enterococcus and Staphylococcus species, and of a strain of the Gram-negative bacterium Escherichia coli. Compounds were dissolved in DMSO at 100× the desired highest concentration and added to one well of a 96-well microassay plate. Two-fold serial drug dilutions were made across the plate in DMSO to yield 11 concentrations (usually 80-0.078 μg/mL) plus an untreated control. Drugs were then transferred to fresh plates using 1.5 μL per well. Log phase cultures were diluted to yield a concentration of 1×10^5 colony forming units/mL in either LB or BHI medium and transferred to the plates containing drug for a final volume of 150 μL. Each well, including the DMSO controls, contained a final concentration of 1% DMSO. Plates were incubated with shaking at 37° C. for 16 to 18 hours. Cell growth was determined by measuring optical density (570 nm, 1 cm path length) in a microplate reader. MIC (minimum inhibitory concentration) is equivalent to the lowest concentration at which growth is not observed. The bacterial strains and MIC determinations have been well characterized and are described elsewhere (Tarantino et al., Antimicrob. Agents Chemother., 43: 1982-1987 (1999); Daly et al., Antimicrob. Agents Chemother., 44: 2217-2221 (2000)).

B. subtilis pol IIIC = target: T1, B. subtilis pol IIIC (Bacillus subtilis, UniProt P13267); test: Classical enzyme kinetic analyses (Lineweaver-Burk) with pol IIIC; type: biochemical; conditions: variable substrate dGTP; Compound 17 at 0, 20, 60 μM; HB-EMAU at 0, 1.6, 4.8 μM
T1 construct: made in house
Protocol: The variable substrate in the experiments for FIGS. 1A and 1B was dGTP. See text for details.
Classical enzyme kinetic analyses were performed with Compound 17 and pol IIIC in which reaction velocity was measured as a function of each substrate (dGTP) concentration at several inhibitor concentrations (0, 20, and 60 μM). The results are graphed in a double reciprocal plot by the method of Lineweaver and Burk in FIG. 1A and show the effect of varying dGTP.
Compounds of the anilinouracil (AU) family, classical DNA polymerase inhibitors, inhibit pol IIIC strictly by “competitive” inhibition. An example is shown in the double reciprocal plot in FIG. 1B for the compound N3-hydroxybutyl 6-(3′-ethyl-4′-methylanilino) uracil (HB-EMAU), tested at 0, 1.6, and 4.8 μM. Such AU compounds compete with the dGTP substrate for binding to the enzyme (Clements et al., J. Biol. Chem. 250, 522-526 (1975)). “Noncompetive” inhibitors are exemplified by the class of HIV reverse transcriptase inhibitors, 4,5,6,7-tetrahydro-5-methylimidazo[4,5,1-jk][1,4]benzodiazepin-2(1H)-one (TIBO), i.e., TIBO compounds bind a site adjacent to the active site (Spence et al., Science 267, 988-993 (1995)). In contrast, the data in FIG. 1A clearly indicate that Compound 17, a pyrazole carboxylic acid hydrazide, inhibits pol IIIC by an “uncompetitive” mechanism.

B. subtilis pol IIIE [3] = target: T2, B. subtilis pol IIIE (Bacillus subtilis, UniProt O34623); test: DNA polymerase assay, B. subtilis pol IIIE; type: biochemical
T2 construct: made in house

[4] = test system: methicillin-resistant S. aureus strain 1094; test: Inhibition of bacterial growth (MIC), MRSA; type: cell-based, Staphylococcus aureus; conditions: Staphylococcus aureus, MRSA, 16 to 18 hours, 37° C., read-out: Minimum Inhibitory Concentration for Bacterial Growth, MRSA
How it was run: as §1

E. coli pol IIIE = target: T3, E. coli pol IIIE (Escherichia coli, UniProt P10443); test: DNA polymerase assay, E. coli pol IIIE; type: biochemical; conditions: 80 μg/mL (190-260 μM) final concentration; all four dNTPs
T3 construct: purchased Enzyco, Denver, Colo
How it was run: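 Incorporation of 3H label into activated calf thymus DNA (0.4 mg/mL) from 10 μM of all four dNTPs, 10 min at 30 °C in pH 7.5 Tris/magnesium acetate, compounds in 1% DMSO. Reactions started with 0.025–0.06 units recombinant polymerase, stopped with cold TCA; IC50 and percent inhibition relative to DMSO control.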

S. aureus Smith strain = test: Inhibition of bacterial growth (MIC), Sm; type: cell-based, Staphylococcus aureus; conditions: Staphylococcus aureus, 16 to 18 hours, 37° C., read-out: Minimum Inhibitory Concentration for Bacterial Growth, Sm
How it was run: as §1

B. subtilis pol IIIE [5] = target: T2, B. subtilis pol IIIE; test: DNA polymerase assay, B. subtilis pol IIIE; type: biochemical; remark: listed apart in the source
[6] = test system: Staphylococcus aureus strain IP 8; test: Inhibition of bacterial growth (MIC), Sa; type: cell-based; conditions: IP8, 16 to 18 hours, 37° C., read-out: Minimum Inhibitory Concentration for Bacterial Growth, Sa
How it was run: as §1

[7] = test system: Enterococcus faecalis strain 29212; test: Inhibition of bacterial growth (MIC), Efcl; type: cell-based; conditions: 16 to 18 hours, 37° C., read-out: Minimum Inhibitory Concentration for Bacterial Growth, Efcl
How it was run: as §1

T2 sequence (O34623 whole entry): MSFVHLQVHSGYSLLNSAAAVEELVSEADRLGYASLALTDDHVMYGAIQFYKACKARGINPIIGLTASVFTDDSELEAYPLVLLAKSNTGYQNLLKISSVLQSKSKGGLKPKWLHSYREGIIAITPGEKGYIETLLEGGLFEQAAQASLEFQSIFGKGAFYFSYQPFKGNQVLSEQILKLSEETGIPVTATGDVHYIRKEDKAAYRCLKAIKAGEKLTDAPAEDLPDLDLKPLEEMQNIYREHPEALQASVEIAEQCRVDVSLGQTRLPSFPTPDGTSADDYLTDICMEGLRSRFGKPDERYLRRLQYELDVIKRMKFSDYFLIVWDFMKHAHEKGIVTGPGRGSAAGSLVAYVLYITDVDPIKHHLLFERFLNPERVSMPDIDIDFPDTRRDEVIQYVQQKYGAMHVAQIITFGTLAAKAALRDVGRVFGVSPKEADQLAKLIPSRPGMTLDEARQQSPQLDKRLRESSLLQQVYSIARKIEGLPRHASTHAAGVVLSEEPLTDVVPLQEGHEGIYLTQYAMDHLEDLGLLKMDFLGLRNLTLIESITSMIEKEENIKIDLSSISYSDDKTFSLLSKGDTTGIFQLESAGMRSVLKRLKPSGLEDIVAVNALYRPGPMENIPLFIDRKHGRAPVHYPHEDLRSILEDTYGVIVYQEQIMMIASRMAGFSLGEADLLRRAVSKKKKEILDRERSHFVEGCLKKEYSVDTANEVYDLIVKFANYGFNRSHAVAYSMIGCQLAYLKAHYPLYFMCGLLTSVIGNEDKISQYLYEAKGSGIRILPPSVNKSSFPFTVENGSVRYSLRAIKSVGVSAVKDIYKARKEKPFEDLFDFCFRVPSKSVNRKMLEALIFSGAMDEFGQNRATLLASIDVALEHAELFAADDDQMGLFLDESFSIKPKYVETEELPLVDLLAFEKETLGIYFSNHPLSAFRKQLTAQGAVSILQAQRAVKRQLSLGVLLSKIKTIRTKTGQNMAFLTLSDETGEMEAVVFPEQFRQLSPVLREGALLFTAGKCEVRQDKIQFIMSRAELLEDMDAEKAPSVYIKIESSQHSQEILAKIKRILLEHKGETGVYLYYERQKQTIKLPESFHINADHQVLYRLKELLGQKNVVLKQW
T1 sequence (P13267 whole entry): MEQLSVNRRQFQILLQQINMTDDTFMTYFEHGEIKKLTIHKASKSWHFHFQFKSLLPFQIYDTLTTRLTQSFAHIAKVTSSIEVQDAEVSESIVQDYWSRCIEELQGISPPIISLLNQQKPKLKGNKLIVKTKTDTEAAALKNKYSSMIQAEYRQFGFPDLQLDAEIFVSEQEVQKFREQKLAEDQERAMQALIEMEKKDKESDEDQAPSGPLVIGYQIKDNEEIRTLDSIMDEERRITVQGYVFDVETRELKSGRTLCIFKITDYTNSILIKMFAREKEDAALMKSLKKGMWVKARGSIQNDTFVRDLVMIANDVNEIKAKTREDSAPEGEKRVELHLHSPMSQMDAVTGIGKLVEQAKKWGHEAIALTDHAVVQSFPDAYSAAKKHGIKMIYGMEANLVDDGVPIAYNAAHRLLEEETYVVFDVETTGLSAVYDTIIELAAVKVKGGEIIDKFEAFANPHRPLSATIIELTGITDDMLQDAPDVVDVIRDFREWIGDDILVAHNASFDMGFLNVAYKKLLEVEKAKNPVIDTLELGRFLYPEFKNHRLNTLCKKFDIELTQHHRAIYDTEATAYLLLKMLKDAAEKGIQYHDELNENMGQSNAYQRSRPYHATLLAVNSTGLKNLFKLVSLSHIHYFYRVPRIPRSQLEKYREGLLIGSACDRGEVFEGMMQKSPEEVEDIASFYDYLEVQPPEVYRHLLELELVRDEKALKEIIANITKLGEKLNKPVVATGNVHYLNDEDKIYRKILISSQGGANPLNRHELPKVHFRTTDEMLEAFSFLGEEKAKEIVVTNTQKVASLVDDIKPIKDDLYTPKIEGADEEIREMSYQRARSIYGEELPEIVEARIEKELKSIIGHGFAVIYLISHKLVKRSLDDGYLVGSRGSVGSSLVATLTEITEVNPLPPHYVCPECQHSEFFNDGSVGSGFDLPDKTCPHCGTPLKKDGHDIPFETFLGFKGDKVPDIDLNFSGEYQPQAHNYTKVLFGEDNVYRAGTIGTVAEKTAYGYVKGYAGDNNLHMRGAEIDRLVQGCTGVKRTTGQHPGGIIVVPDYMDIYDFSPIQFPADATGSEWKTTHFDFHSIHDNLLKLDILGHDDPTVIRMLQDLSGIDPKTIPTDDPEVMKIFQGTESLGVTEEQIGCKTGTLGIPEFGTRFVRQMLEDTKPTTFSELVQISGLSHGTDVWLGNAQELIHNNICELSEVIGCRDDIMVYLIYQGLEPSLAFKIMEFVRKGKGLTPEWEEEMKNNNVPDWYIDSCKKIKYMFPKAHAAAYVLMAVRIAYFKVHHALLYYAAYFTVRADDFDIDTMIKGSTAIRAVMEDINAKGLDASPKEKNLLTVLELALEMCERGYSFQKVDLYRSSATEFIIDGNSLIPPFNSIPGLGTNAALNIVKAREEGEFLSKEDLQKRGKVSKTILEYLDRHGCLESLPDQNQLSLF
T3 sequence (P10443 whole entry): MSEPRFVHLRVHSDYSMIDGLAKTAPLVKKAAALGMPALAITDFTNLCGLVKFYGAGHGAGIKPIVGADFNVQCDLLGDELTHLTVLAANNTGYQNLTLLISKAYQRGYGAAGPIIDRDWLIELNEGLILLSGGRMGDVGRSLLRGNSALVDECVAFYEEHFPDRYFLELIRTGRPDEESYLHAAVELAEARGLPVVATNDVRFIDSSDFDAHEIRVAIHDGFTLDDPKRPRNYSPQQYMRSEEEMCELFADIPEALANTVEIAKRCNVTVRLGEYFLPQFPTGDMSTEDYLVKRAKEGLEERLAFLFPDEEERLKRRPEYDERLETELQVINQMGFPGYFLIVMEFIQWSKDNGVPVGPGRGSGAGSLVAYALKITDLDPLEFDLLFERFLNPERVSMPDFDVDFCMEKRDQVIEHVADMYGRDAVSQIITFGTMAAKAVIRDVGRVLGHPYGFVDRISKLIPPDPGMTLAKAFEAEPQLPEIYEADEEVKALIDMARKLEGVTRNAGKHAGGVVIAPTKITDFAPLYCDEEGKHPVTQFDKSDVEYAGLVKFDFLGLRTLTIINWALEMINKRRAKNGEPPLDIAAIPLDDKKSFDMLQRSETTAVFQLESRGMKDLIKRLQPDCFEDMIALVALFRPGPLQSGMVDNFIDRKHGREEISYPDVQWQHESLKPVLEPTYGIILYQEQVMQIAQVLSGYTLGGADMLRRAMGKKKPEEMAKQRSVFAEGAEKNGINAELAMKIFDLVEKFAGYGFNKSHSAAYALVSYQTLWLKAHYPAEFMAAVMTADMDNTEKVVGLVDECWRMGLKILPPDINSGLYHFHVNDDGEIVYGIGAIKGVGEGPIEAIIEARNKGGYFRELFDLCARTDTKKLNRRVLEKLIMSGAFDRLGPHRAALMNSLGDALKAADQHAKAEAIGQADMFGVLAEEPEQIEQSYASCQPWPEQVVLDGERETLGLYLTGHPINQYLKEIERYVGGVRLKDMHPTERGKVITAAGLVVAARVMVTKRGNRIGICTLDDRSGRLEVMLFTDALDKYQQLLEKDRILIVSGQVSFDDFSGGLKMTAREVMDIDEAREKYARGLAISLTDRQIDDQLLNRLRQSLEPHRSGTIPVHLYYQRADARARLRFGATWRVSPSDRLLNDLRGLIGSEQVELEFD

COc1ccc(-c2cc(C(=O)NN=Cc3cc(OC)c(OC)c(OC)c3)[nH]n2)cc1 [Compound 17]
MIC [1]: 5 µg/mL (≈ 12.2 µM)
MIC [2]: 5 µg/mL (≈ 12.2 µM)
Inhibition of bacterial growth, result in words (rank of MIC values) (test strains of bacteria): lowest MIC values
Mechanism of inhibition of pol IIIC (double reciprocal plot) (B. subtilis pol IIIC): uncompetitive inhibition mechanism
inhibition at 80 µg/mL (B. subtilis pol IIIE [3]; 80 μg/mL (190-260 μM) final concentration, all four dNTPs, read-out: Percent Enzymatic Inhibition B. subtilis pol IIIE): > 20%
IC50 (B. subtilis pol IIIE [3]; B. subtilis Pol IIIE IC50, 4 dNTPs, in the presence of all four dNTP substrates): > 780 µM
MIC [4]: 2.5 µg/mL (≈ 6.09 µM)
Percent Enzymatic Inhibition E. coli pol IIIE (E. coli pol IIIE): Inactive
MIC (S. aureus Smith strain): 2.5 µg/mL (≈ 6.09 µM)
IC50 (B. subtilis pol IIIE [5]; B. subtilis Pol IIIE IC50, −dATP, in the absence of dATP): > 780 µM
IC50 (B. subtilis pol IIIE [5]; B. subtilis Pol IIIE IC50, −dCTP, in the absence of dCTP): > 780 µM
IC50 (B. subtilis pol IIIE [5]; B. subtilis Pol IIIE IC50, −dGTP, in the absence of dGTP): > 780 µM
MIC [6]: 1.25 µg/mL (≈ 3.05 µM)
MIC [7]: 20 µg/mL (≈ 48.7 µM)
